Experiment [1] is described as follows: Downregulation of P-gp expression in human MCF7/ADR cells at 10 uM after 36 hrs by Western blot method relative to control. The class given is functional, cell-based. As to conditions: NCI/ADR-RES. (Immunoblotting shows a protein as a band on a membrane.)
In experiment [2] the test system is NCI/ADR-RES. Kind of experiment: Inhibition of P-gp in human MCF7/ADR cells assessed as increase in intracellular adriamycin accumulation at 20 uM after 3 hrs by flow cytometry. The class given is cell-based.
The subject of experiment [3] is NCI/ADR-RES. As to the kind of experiment: Inhibition of P-gp in human MCF7/ADR cells assessed as increase in intracellular rhodamine123 accumulation at 10 to 20 uM incubated for 4 hrs in dark condition by flow cytometry. The class given is cell-based.
Experiment [4] can be described thus: Downregulation of P-gp expression in human MCF7/ADR cells at 20 uM after 36 hrs by Western blot method relative to control. The conditions noted are these: NCI/ADR-RES. The experiment is classed as functional, cell-based.
Experiment [5] concerns NCI/ADR-RES. As to the kind of experiment: Inhibition of P-gp in human MCF7/ADR cells assessed as potentiation of adriamycin-induced cell death by measuring dead cell levels at 20 uM after 48 hrs by 7-AAD staining-based flow cytometry (reference value: 8.1%). Further details: scale not given: the % may be the effect or the level left. (Flow cytometry measures light scatter and fluorescence of single cells or particles in a stream.)

For experiment [6], the system named is NCI/ADR-RES. As to the kind of experiment: Inhibition of P-gp in human MCF7/ADR cells assessed as potentiation of adriamycin-induced cell death by measuring dead cell levels at 10 uM after 48 hrs by 7-AAD staining-based flow cytometry. Also noted: scale not given: the % may be the effect or the level left.
Experiment [7] concerns NCI/ADR-RES. Kind of experiment: Inhibition of P-gp in human MCF7/ADR cells assessed as increase in intracellular adriamycin accumulation at 10 to 20 uM after 4 hrs by fluorescence microscopic analysis. The class given is cell-based.
The subject of experiment [8] is NCI/ADR-RES. As to the kind of experiment: Inhibition of P-gp in human MCF7/ADR cells assessed as potentiation of adriamycin-induced cytotoxic activity at 20 uM after 48 hrs by MTT assay relative to control. The class given is cell-based.
The subject of experiment [9] is NCI/ADR-RES. Kind of experiment: Inhibition of P-gp in human MCF7/ADR cells assessed as increase in intracellular adriamycin accumulation at 20 uM after 3 hrs by flow cytometry relative to verapamil. The experiment is classed as cell-based.
Experiment [10] relates to NCI/ADR-RES. Kind of experiment: Inhibition of P-gp in human MCF7/ADR cells assessed as increase in intracellular adriamycin accumulation at 10 uM after 3 hrs by flow cytometry relative to verapamil. The class given is cell-based.
Experiment [11] is described as follows: Cytotoxicity against human MCF7 cells assessed as inhibition of cell survival rate at 50 uM after 48 hrs by MTT assay relative to control. The experiment is classed as functional. The conditions noted are these: MCF7, 48 h.
For experiment [12], the system named is NCI/ADR-RES. As to the kind of experiment: Inhibition of P-gp in human MCF7/ADR cells assessed as increase in intracellular adriamycin accumulation at 10 uM after 3 hrs by flow cytometry relative to control. The class given is cell-based.

Active and inactive are the calls of the source. The rule behind the calls is not given here.

As a reminder, the inhibition is how much of the control response was suppressed. For `CC1=CC[C@@H](OC(=O)c2cccnc2)[C@H]2[C@@]1(C)[C@@H](OC(=O)c1cccnc1)[C@H](OC(=O)c1ccccc1)[C@]1(C)O[C@]3(CC[C@]21C)COC(=O)C3`, the Activity in experiment [1] worked out at 27%; in experiment [4], 32%; in the experiment on NCI/ADR-RES [5] it was 89.2%; with NCI/ADR-RES [6], 74.7%. The inhibition entry with NCI/ADR-RES [2], with NCI/ADR-RES [3] and in the experiment on NCI/ADR-RES [7] was “Active” in each case. Besides, the fold change (FC) with NCI/ADR-RES [8] is 45.3; in the experiment with NCI/ADR-RES [9], 1.8; in the experiment with NCI/ADR-RES [10], 1.5; with NCI/ADR-RES [12] it was 2.89. Also, the inhibition at 50 µM in experiment [11] stood at 13.6%.

For the origin of these results see ChEMBL document CHEMBL3856213, “neo-Clerodane diterpenoids from Scutellaria barbata mediated inhibition of P-glycoprotein in MCF-7/ADR cells” (Eur J Med Chem, 2016).
